# Assay results published in patent US6472227B1, “Barbiturate assay, tracers, immunogens, antibodies and kit” (Abbott Laboratories, priority 1986, dated 2002).
# What was measured:
# Assay type in all cases: binding, sheep
# [1] = system: antibodies raised against an immunogen having the structure shown in FIG. 29; assay: Fluorescence polarization immunoassay cross-reactivity, tracer of FIG. 31; settings: tracer FIG. 31
# Description: (§1) The antibodies of the present invention are prepared by eliciting a response in sheep to the immunogens described supra. The immunogen is administered to animals or to in vitro cultures of immunocompetent cells by a series of innoculations, in a manner well known to those skilled in the art.
# [2] = system: antibodies raised against an immunogen having the structure shown in FIG. 29; assay: Fluorescence polarization immunoassay cross-reactivity in drug-free normal human urine, tracer of FIG. 30; settings: for % CR / Conc. Found: tracer FIG. 30; for amount of the test compound found in the resulting human urine: 200 ng/mL added to drug-free urine, secobarbital standard
# Description: as §1
# (§2) The tracer formulation presently preferred is 150 nanomolar tracer in: 0.1 molar phosphate buffer at pH 6.2; 5% sodium 5-sulfosalicylate; 0.1% sodium azide; and 0.01% bovine gamma-globulin. The antiserum formulation comprises sheep serum diluted with: 0.1 molar tris buffer at pH 7.5; 0.1% sodium azide; 0.1% bovine gamma-globulin; and 2% ethylene glycol (volume/volume). The dilution buffer comprises: 0.1 molar sodium phosphate at pH 7.5; 0.1% sodium azide; and 0.01% bovine gamma-globulin. The pretreatment solution comprises: 0.01% bovine gamma-globulin; 0.1 molar tris buffer at pH 7.5; 0.1% sodium azide; and 10 mg/mL riboflavin binding protein.
# (§3) A minimum of fifty microliters of urine is required. The calibrators, controls, or unknown samples are pipetted directly into the sample well of the TDx® or ADx® sample cartridge. […] The assay procedure from this point is fully automated.
# (§4) If a manual assay is being performed, then the sample is mixed with the pretreatment solution in dilution buffer and a background reading is taken. The tracer and antibody are then mixed into the test solution. After incubation, a fluorescence polarization reading is taken.
# (§5) The net fluorescence polarization value of each calibrator, control or sample is determined and is printed on the output tape of an instrument such as the Abbott TDx® Analyzer. […] The concentration of each control or sample is read off the stored calibration curve and printed on the output tape.
# Cross-reactivity was tested by the method of the present invention for the commonly-used barbiturates. In each case, compounds were assayed on the Abbott Laboratories+ TDx® Clinical Analyzer or the ADx® Drugs of Abuse System after adding a known quantity (200 ng/mL) of the barbiturate test compound to drug-free normal human urine.
# (§6) The five columns in Tables 4(a) and 4(b) indicate the same information as is described above for Table 3(a).
# [3] = system: antibodies raised against an immunogen having the structure shown in FIG. 28; assay: Fluorescence polarization immunoassay cross-reactivity in drug-free normal human urine, tracer of FIG. 5
# Description: as §1, §2, §3, §4, §5
# Cross-reactivity was tested by the method of the present invention for the commonly-used barbiturates. […]
# The five columns indicate the following information:
# In other words, when 200 ng of secobarbital were added to drug-free normal human urine, approximately 200 ng of secobarbital were detected in the resulting urine sample. Thus, the closer the factor is to 1.0, the more accurate the assay is with respect to the particular test compound analyzed.
# The percent cross-reactivity value presented in column five was obtained by the following mathematical formula: [formula]
# as §6
compound,measurement,setting,value
C=CCC1(C2C=CCC2)C(=O)NC(=O)NC1=O (stereo not drawn) [Cyclopentobarbital],% CR,[1]; Conc. Added 1200 ng/mL,>167%
same,% CR,[2]; Conc. Added 1200 ng/mL,>167%
CCC1(c2ccccc2)CCC(=O)NC1=O (stereo not drawn) [Glutethimide],amount of the test compound found,[3]; 1 μg/mL added,ND (None detected: Concentration less than the sensitivity of the assay (60 ng/mL))
same,amount of the test compound found,[3]; 10 μg/mL added,180 ng/mL
same,factor,[3]; 10 μg/mL added,0.018
same,percent cross reactivity,[3]; 10 μg/mL added,1.80%
same,% CR,[1]; Conc. Added 10 (ng/mL),4.70%
same,Conc. Found,[1]; Conc. Added 10 (ng/mL),470 ng/mL
same,amount of the test compound found,[2]; 1 μg/mL added,89 ng/mL
same,factor,[2]; 1 μg/mL added,0.089
same,percent cross reactivity,[2]; 1 μg/mL added,8.90%
same,amount of the test compound found,[2]; 10 μg/mL added,480 ng/mL
same,factor,[2]; 10 μg/mL added,0.048
same,percent cross reactivity,[2]; 10 μg/mL added,4.80%
same,% CR,[2]; Conc. Added 10 (ng/mL),4.70%
same,Conc. Found,[2]; Conc. Added 10 (ng/mL),470 ng/mL
C=CCC1(C(C)C)C(=O)NC(=O)NC1=O [Aprobarbital],% CR,[1]; Conc. Added 1200 ng/mL,139%
same,Conc. Found,[1]; Conc. Added 1200 ng/mL,1670 ng/mL
same,factor which overestimates or underestimates the compound assayed for,[2]; 200 ng/mL added,0.62
same,percent cross reactivity,[2]; 200 ng/mL added,62%
same,amount of the test compound found in the resulting human urine,[2],123 ng/mL
same,% CR,[2]; Conc. Added 1200 ng/mL,77%
same,Conc. Found,[2]; Conc. Added 1200 ng/mL,920 ng/mL
CCC(C)C1(CC)C(=O)NC(=O)NC1=O (stereo not drawn) [Butabarbital],% CR,[1]; Conc. Added 1200 ng/mL,>167%
same,factor which overestimates or underestimates the compound assayed for,[2]; 200 ng/mL added,2.24
same,percent cross reactivity,[2]; 200 ng/mL added,224%
same,amount of the test compound found in the resulting human urine,[2],489 ng/mL
same,% CR,[2]; Conc. Added 1200 ng/mL,>167%
C=CCC1(c2ccccc2)C(=O)NC(=O)NC1=O [Alphenal],% CR,[1]; Conc. Added 1200 ng/mL,>167%
same,% CR,[2]; Conc. Added 1200 ng/mL,94%
same,Conc. Found,[2]; Conc. Added 1200 ng/mL,1130 ng/mL
CCC1(c2ccc(N)cc2)CCC(=O)NC1=O (stereo not drawn) [Aminoglutethimide],amount of the test compound found,[2]; 1 μg/mL added,ND (None detected: Concentration less than the sensitivity of the assay (60 ng/mL))
same,amount of the test compound found,[2]; 10 μg/mL added,117 ng/mL
same,factor,[2]; 10 μg/mL added,0.00117
same,percent cross reactivity,[2]; 10 μg/mL added,1.17%
same,amount of the test compound found,[2]; 100 μg/mL added,412 ng/mL
same,factor,[2]; 100 μg/mL added,0.00041
same,percent cross reactivity,[2]; 100 μg/mL added,0.41%
CC(C(=O)O)c1ccc(CC(C)(C)O)cc1 (stereo not drawn) [OH-Ibuprofen],amount of the test compound found,[3]; 1 μg/mL added,ND (None detected: Concentration less than the sensitivity of the assay (60 ng/mL))
same,amount of the test compound found,[3]; 10 μg/mL added,ND (None detected: Concentration less than the sensitivity of the assay (60 ng/mL))
same,amount of the test compound found,[3]; 100 μg/mL added,ND (None detected: Concentration less than the sensitivity of the assay (60 ng/mL))
same,amount of the test compound found,[3]; 1000 μg/mL added,60 ng/mL
same,factor,[3]; 1000 μg/mL added,0.00006
same,percent cross reactivity,[3]; 1000 μg/mL added,0.006%
C=CCC1(CC(=C)Br)C(=O)NC(=O)NC1=O [Brallobarbital],% CR,[1]; Conc. Added 1200 ng/mL,159%
same,Conc. Found,[1]; Conc. Added 1200 ng/mL,1910 ng/mL
same,factor which overestimates or underestimates the compound assayed for,[2]; 200 ng/mL added,0.94
same,percent cross reactivity,[2]; 200 ng/mL added,94%
same,amount of the test compound found in the resulting human urine,[2],188 ng/mL
same,% CR,[2]; Conc. Added 1200 ng/mL,117%
same,Conc. Found,[2]; Conc. Added 1200 ng/mL,1400 ng/mL
